Data published in patent publication US20060193797A1, “Chroman derivatives as lipoxygenase inhibitors” (Galileo Pharmaceuticals, Inc, priority 2005, published 2006).

What was measured:
[1] = target: T1, porcine leukocyte 12/15-lipoxygenase (Sus scrofa, UniProt P16469); assay: 12/15-Lipoxygenase Enzyme Assay (colorimetric, ferric oxidation of xylenol orange); type: biochemical; details: 70 μM arachidonic acid, 10 minute incubation at room temperature, 5 concentrations in triplicate starting at 10 μM; read-out: inhibition of 12/15-Lipoxygenase, IC50
T1 construct: purchased Cayman 60300
T1 sequence (P16469 1-663): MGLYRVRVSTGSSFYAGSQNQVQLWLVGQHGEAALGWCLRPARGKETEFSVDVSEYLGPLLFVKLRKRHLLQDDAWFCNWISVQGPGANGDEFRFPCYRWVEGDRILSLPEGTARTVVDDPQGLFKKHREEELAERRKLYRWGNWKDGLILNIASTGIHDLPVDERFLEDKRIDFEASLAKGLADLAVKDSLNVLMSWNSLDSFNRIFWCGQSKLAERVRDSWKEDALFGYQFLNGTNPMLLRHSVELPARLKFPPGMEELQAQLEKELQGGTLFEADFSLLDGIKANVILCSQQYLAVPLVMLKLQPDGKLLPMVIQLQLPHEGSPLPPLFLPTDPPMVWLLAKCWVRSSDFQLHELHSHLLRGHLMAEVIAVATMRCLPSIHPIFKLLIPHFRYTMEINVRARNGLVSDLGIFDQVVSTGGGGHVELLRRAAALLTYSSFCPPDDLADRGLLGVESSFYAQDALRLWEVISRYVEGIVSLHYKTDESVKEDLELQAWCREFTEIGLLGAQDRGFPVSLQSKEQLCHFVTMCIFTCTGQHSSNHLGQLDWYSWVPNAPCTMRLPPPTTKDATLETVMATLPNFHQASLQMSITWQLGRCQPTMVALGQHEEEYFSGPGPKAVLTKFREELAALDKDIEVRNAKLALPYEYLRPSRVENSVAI
Procedure: This procedure was used for measuring the enzymatic activity of porcine leukocyte 12/15-lipoxygenase using a colorimetric method based on the ferric oxidation of xylenol orange.
Porcine Leukocyte 12/15-lipoxygenase (Cayman Cat # 60300) was used in this assay. Test compound and/or vehicle were added to 1.3 μL 12/15-lipoxygenase in 50 mM Tris-HCl buffer, pH 7.4. The reaction was initiated by addition of 70 μM arachidonic acid in Tris-HCl buffer, pH 7.4 and terminated after a 10 minute incubation at room temperature by addition of FOX reagent (25 mM sulfuric acid, 100 μM xylenol orange, 100 μM iron (II) sulphate, methanol:water 9:1). The yellow color of acidified xylenol orange was converted to a blue color by the lipid hydroperoxide-mediated oxidation of Fe^2+ ions and the interaction of the resulting Fe^3+ ions with the dye. The complex was allowed to form during a 1 hour incubation at room temperature with shaking. Absorbance of the Fe^3+ complex was then measured at […] using a spectrophotometer.
Negative controls contained enzyme during the incubation step but substrate was not added until after the FOX reagent.
Compounds are screened at 5 concentrations in triplicate starting at 10 μM.

[2] = target: T2, human recombinant 5-lipoxygenase (Homo sapiens, UniProt P09917); assay: 5-Lipoxygenase Enzyme Assay (colorimetric, ferric oxidation of xylenol orange); type: biochemical; details: 70 μM arachidonic acid, 10 minute incubation at room temperature, 5 concentrations in triplicate starting at 10 μM; read-out: inhibition of 5-Lipoxygenase, IC50
T2 construct: purchased Cayman 60402
T2 sequence (P09917 1-674): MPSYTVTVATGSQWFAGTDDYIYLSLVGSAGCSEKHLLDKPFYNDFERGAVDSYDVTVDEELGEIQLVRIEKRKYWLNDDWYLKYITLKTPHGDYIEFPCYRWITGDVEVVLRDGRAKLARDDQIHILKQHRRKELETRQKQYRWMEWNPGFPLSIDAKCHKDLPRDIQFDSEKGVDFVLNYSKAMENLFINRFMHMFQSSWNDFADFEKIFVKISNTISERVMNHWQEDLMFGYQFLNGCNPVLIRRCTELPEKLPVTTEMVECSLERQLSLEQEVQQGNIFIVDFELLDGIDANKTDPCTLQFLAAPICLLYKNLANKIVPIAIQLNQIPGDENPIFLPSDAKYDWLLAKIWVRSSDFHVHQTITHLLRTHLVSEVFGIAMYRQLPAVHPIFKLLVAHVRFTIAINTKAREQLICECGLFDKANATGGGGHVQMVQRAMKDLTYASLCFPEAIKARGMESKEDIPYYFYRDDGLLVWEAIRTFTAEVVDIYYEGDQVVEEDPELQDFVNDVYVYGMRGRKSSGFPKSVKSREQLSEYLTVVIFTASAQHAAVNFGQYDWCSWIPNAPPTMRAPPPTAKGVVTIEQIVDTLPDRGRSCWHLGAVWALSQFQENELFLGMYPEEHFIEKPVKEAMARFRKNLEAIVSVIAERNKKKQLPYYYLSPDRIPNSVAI
Procedure: This procedure was used for measuring the enzymatic activity of human recombinant 5-lipoxygenase using a colorimetric method based on the ferric oxidation of xylenol orange.
Human recombinant 5-lipoxygenase (Cayman Cat # 60402) was used in this assay. The test compound and/or vehicle was added to 0.5 μL 5-lipoxygenase in 50 mM Tris-HCl buffer, pH 7.4. The reaction was initiated by addition of 70 μM arachidonic acid in Tris-HCl buffer, pH 7.4, and terminated after a 10 minute incubation at room temperature by addition of FOX reagent (25 mM sulfuric acid, 100 μM xylenol orange, 100 μM iron (II) sulphate, methanol:water 9:1). The yellow color of acidified xylenol orange was converted to a blue color by the lipid hydroperoxide-mediated oxidation of Fe^2+ ions and the interaction of the resulting Fe^3+ ions with the dye. The complex was allowed to form during a 1 hour incubation at room temperature with shaking. Absorbance of the Fe^3+ complex was then measured at […] using a spectrophotometer.
Negative controls contained enzyme during the incubation step but substrate was not added until after the FOX reagent. Compounds were screened at 5 concentrations in triplicate starting at 10 μM.

## Cc1c(C)c2c(c(C)c1O)C(O)CC(C)(C)O2 (centres unmarked) [2,2,5,7,8-pentamethylchroman-4,6-diol]
[1]
  IC50: < 5 µM
[2]
  IC50: < 3 µM

## Cc1c(O)cc2c(c1C)OC(C)(C)CC2O (centres unmarked) [2,2,7,8-tetramethylchroman-4,6-diol]
[2]
  IC50: < 3 µM

## CONC1CC(C)(C)Oc2c(C)c(C)c(O)c(C)c21 (centres unmarked) [4-Methoxyamino-2,2,5,7,8-pentamethyl-chroman-6-ol]
[1]
  IC50: < 5 µM
[2]
  IC50: < 3 µM

## Cc1c(C)c2c(c(C)c1O)C(=NN(C)C)CC(C)(C)O2 [6-Hydroxy-2,2,5,7,8-pentamethyl-2,3-dihydro-4H-chromen-4-one dimethylhydrazone]
[2]
  IC50: < 3 µM

## CON=C1CC(C)(C)Oc2c(C)c(C)c(O)c(C)c21 [6-Hydroxy-2,2,5,7,8-pentamethyl-chroman-4-one O-methyl-oxime]
[1]
  IC50: < 5 µM
[2]
  IC50: < 3 µM

## CON=C1CC(C)(C)Sc2c(C)c(C)c(O)c(C)c21 [6-Hydroxy-2,2,5,7,8-pentamethyl-thiochroman-4-one O-methyl-oxime]
[1]
  IC50: < 5 µM
[2]
  IC50: < 3 µM

## CO/N=C1/Cc2c(C)c(O)c(C)c(C)c2OC1(C)C [6-hydroxy-2,2,5,7,8-pentamethylchroman-3-one O-methyl oxime]
[1]
  IC50: < 5 µM
